System: Plasmodium berghei
Experiment: Luciferase/luciferin-expressing antifolate-resistant parasites were used to infect a culture of HepG2 cells that were pre-incubated with compounds. Infected hepatocytes emit light due to the luciferase reaction. Assay results are presented as the percent inhibition of light emission compared to control. […]
Type: functional
Conditions: sporozoite; for IC90: read-out: LUCIFERASE INFECTION ASSAY - IC90
[1] = read-out: LUCIFERASE INFECTION ASSAY - IC50

SMILES | IC50 [1] | IC90 | other results
Cc1ccc(Sc2ncnc3sccc23)cc1 | > 12.8 µM | > 12.8 µM | –
CN(C)CCNc1cc(-c2ccco2)nc2ccccc12 | – | 9.18 µM | IC50 (HEPG2TOX_HILL_SLOPE 2.93, HEPG2TOX_R_SQUARED 0.885, PBLUC_HILL_SLOPE 3.51, PBLUC_R_SQUARED 0.62, read-out: LUCIFERASE INFECTION ASSAY - IC50): 4.91 µM
O=C(Nc1ccnn1Cc1cccc(Cl)c1)c1csc(-c2ccsc2)n1 | > 10 µM | > 10 µM | –
Cc1ccc(NC(=O)c2cccc(NS(=O)(=O)c3ccc(C)c(F)c3)c2)nc1 | > 10 µM | > 10 µM | –
COc1ccc2c(=O)c(C(=O)N(C)Cc3ccc(F)c(F)c3)c[nH]c2c1 | – | 4.7 µM | IC50 (PBLUC_HILL_SLOPE 1.79, PBLUC_R_SQUARED 0.658, read-out: LUCIFERASE INFECTION ASSAY - IC50): 1.38 µM
COc1ccc(C(=O)/C(=C/c2ccc(C)cc2C)c2nc3ccccc3[nH]2)cc1 | – | 4.07 µM | IC50 (FFLUC_HILL_SLOPE 13.7, FFLUC_R_SQUARED 0.282, HEPG2TOX_HILL_SLOPE 10.4, HEPG2TOX_R_SQUARED 0.664, PBLUC_HILL_SLOPE 15.9, PBLUC_R_SQUARED 0.277, read-out: LUCIFERASE INFECTION ASSAY - IC50): 3.54 µM
Cc1cc(C)c(C)c(S(=O)(=O)N2CCC(C(=O)Nc3nc(-c4ccc[nH]4)cs3)CC2)c1C | – | > 10 µM | IC50 (FFLUC_HILL_SLOPE 22.1, FFLUC_R_SQUARED 0.531, read-out: LUCIFERASE INFECTION ASSAY - IC50): > 10 µM
CN1C(=O)N(CCCc2ccncc2)C(=O)C12CCN(Cc1ccc(N3CCCC3)cc1)CC2 | – | 2.98 µM | IC50 (HEPG2TOX_HILL_SLOPE 1.82, HEPG2TOX_R_SQUARED 0.908, PBLUC_HILL_SLOPE 12.5, PBLUC_R_SQUARED 0.321, read-out: LUCIFERASE INFECTION ASSAY - IC50): 2.5 µM
CCCN1CCc2c(sc3c2c(NCCc2ccccc2)nc2nnnn23)C1 | > 8.39 µM | > 8.39 µM | –
CC(NS(=O)(=O)c1ccc(-n2ncc(Cl)c(Cl)c2=O)cc1)c1ccc2ccccc2c1 (stereo not drawn) | – | 3.82 µM | IC50 (FFLUC_HILL_SLOPE 0.605, FFLUC_R_SQUARED 0.525, HEPG2TOX_HILL_SLOPE 11.4, HEPG2TOX_R_SQUARED 0.983, PBLUC_HILL_SLOPE 12.9, PBLUC_R_SQUARED 0.58, read-out: LUCIFERASE INFECTION ASSAY - IC50): 3.22 µM
O=C(Cn1cc(C(F)(F)F)ccc1=O)N/N=C/c1c2ccccc2cc2ccccc12 | – | > 10 µM | IC50 (PBLUC_HILL_SLOPE 2.42, PBLUC_R_SQUARED 0.423, read-out: LUCIFERASE INFECTION ASSAY - IC50): 5.16 µM
CC(Oc1ccc(Cl)cc1Cl)C(=N)NO (stereo not drawn) | > 13.2 µM | > 13.2 µM | –
N=C(Cc1ccc([N+](=O)[O-])cc1)NOC(=O)c1cccs1 | > 10.8 µM | > 10.8 µM | –
CC(Sc1nnc(/C=C/c2ccc(F)cc2)[nH]1)C(=O)NC(C)(C)C (stereo not drawn) | 2.09 µM | 5.34 µM | –
N#Cc1ccccc1S(=O)(=O)Nc1cccc(-n2cccn2)c1 | > 10 µM | > 10 µM | –
CC1CCN(C(CNC(=O)N2CCc3sccc3C2)c2cccs2)CC1 (stereo not drawn) | – | 9.12 µM | IC50 (PBLUC_HILL_SLOPE 2.26, PBLUC_R_SQUARED 0.56, read-out: LUCIFERASE INFECTION ASSAY - IC50): 3.45 µM
c1ccc(Oc2ccccc2-c2cnc3c(NCc4cccs4)nccn23)cc1 | 4.96 µM | > 8.28 µM | –
CC(=O)Nc1ccc(S(=O)(=O)Oc2ccc(C)cc2[N+](=O)[O-])cc1 | > 9.42 µM | > 9.42 µM | –
O=C(N1CCC(C(c2ccccc2)c2ccccc2)CC1)C(Cl)(Cl)Cl | – | > 8.32 µM | IC50 (FFLUC_HILL_SLOPE 23.3, FFLUC_R_SQUARED 0.47, HEPG2TOX_HILL_SLOPE 6.45, HEPG2TOX_R_SQUARED 0.799, read-out: LUCIFERASE INFECTION ASSAY - IC50): > 8.32 µM
O=C(Nc1nc(-c2cccs2)c(C(=O)C(F)(F)F)s1)c1ccc(S(=O)(=O)N2CCCCC2)cc1 | 9.17 µM | > 10 µM | –
Cc1ccc(COC(=O)c2c(Cl)nc3sccn23)cc1 | – | 0.397 µM | IC50 (FFLUC_HILL_SLOPE 1.77, FFLUC_R_SQUARED 0.868, HEPG2TOX_HILL_SLOPE 1.9, HEPG2TOX_R_SQUARED 0.904, PBLUC_HILL_SLOPE 1.95, PBLUC_R_SQUARED 0.73, read-out: LUCIFERASE INFECTION ASSAY - IC50): 0.129 µM
CNC(=O)c1ccc(CN(C2CC2)S(=O)(=O)c2cc(C)ccc2C)cc1 | – | 5.44 µM | IC50 (HEPG2TOX_HILL_SLOPE 1.06, HEPG2TOX_R_SQUARED 0.677, PBLUC_HILL_SLOPE 1.71, PBLUC_R_SQUARED 0.782, read-out: LUCIFERASE INFECTION ASSAY - IC50): 1.51 µM
CCC(CC)c1nnc(NC(=O)/C=C/c2cn(-c3ccccc3)nc2-c2ccc(F)cc2)s1 | > 10 µM | > 10 µM | –
CC(C(=O)NCc1ccco1)c1ccc2c(c1)[nH]c1ccc(Cl)cc12 (stereo not drawn) | – | > 9.35 µM | IC50 (PBLUC_HILL_SLOPE 15.7, PBLUC_R_SQUARED 0.128, read-out: LUCIFERASE INFECTION ASSAY - IC50): > 9.35 µM
N#Cc1ccc(CN2CCCN(c3ncnc4sccc34)CC2)cc1 | 1.67 µM | > 10 µM | –

SMILES | IC50 [1] | IC90 | other results
COc1cccc(CC(=O)N2C[C@H](OC)C[C@H]2C(=O)NCC2CCCCC2)c1 | > 8.49 µM | > 8.49 µM | –
CN(Cc1cn(-c2ccccc2)nc1-c1ccccc1)C(=O)NCCCc1nc2ccccc2[nH]1 | > 10 µM | > 10 µM | –
CCn1nc(C)c(CN2CCC3(CC2)C(=O)N(Cc2ccccc2)C(=O)N3CCc2ccccc2)c1C | 2.92 µM | > 6.6 µM | –
CNc1snc(C)c1C(=O)NC(C)c1ccc(C(C)C)cc1 (stereo not drawn) | – | 2.91 µM | IC50 (HEPG2TOX_HILL_SLOPE 0.648, HEPG2TOX_R_SQUARED 0.871, PBLUC_HILL_SLOPE 1.92, PBLUC_R_SQUARED 0.818, read-out: LUCIFERASE INFECTION ASSAY - IC50): 0.93 µM
CCCCN(C(=O)c1csc(-c2ccc(C(C)C)cc2)n1)c1c(N)n(CCC)c(=O)[nH]c1=O | > 10 µM | > 10 µM | –
CCN(c1ccccc1)S(=O)(=O)c1cc(NC(=O)NC23CC4(C)CC(C)(CC(C)(C4)C2)C3)ccc1Cl | – | 6.3 µM | IC50 (HEPG2TOX_HILL_SLOPE 3.39, HEPG2TOX_R_SQUARED 0.973, PBLUC_HILL_SLOPE 5.7, PBLUC_R_SQUARED 0.283, read-out: LUCIFERASE INFECTION ASSAY - IC50): 4.28 µM
CCOc1cc(CN(CC)CC(=O)Nc2c(F)cccc2F)ccc1OCc1cccs1 | > 10 µM | > 10 µM | –
CC1CCN(CC(=O)Nc2cccc(C(=O)Nc3cccc(C(F)(F)F)c3)c2)CC1 | > 10 µM | > 10 µM | –
C=c1ccccc1=C1NN=C(Sc2cnn(-c3ccc(C(F)(F)F)cn3)c(=O)c2Cl)N1CC | – | 5.32 µM | IC50 (HEPG2TOX_HILL_SLOPE 11.7, 13.0, HEPG2TOX_R_SQUARED 0.881, 0.478, PBLUC_HILL_SLOPE 8.47, PBLUC_R_SQUARED 0.136, read-out: LUCIFERASE INFECTION ASSAY - IC50): 4.11 µM
Cc1cc(C)cc(C(=O)Nc2nc3ccccc3[nH]2)c1 | 7.33 µM | > 10 µM | –
CCOC(=O)c1cc(N/N=C(/C(=O)Nc2cccnc2)C(=O)c2ccccc2)cc(C(=O)OCC)c1 | > 10 µM | > 10 µM | –
C=S(NC(=O)c1ccc(Cl)cc1)c1sc(C(=O)OCC)c2c1C(=O)CCC2 (stereo not drawn) | – | > 7.78 µM | IC50 (PBLUC_HILL_SLOPE 23.8, PBLUC_R_SQUARED 0.121, read-out: LUCIFERASE INFECTION ASSAY - IC50): > 7.78 µM
OCCN1N=C2c3cc(Cl)ccc3SCC2C1c1ccc(Cl)cc1 (stereo not drawn) | – | > 8.7 µM | IC50 (PBLUC_HILL_SLOPE 3.12, PBLUC_R_SQUARED 0.594, read-out: LUCIFERASE INFECTION ASSAY - IC50): 7.08 µM
CC1CCC(C(C)C)C(OCC(=O)NCc2ccc(NC(=O)c3ccco3)cc2)C1 (stereo not drawn) | – | > 10 µM | IC50 (PBLUC_HILL_SLOPE 3.59, PBLUC_R_SQUARED 0.694, read-out: LUCIFERASE INFECTION ASSAY - IC50): 6.09 µM
N#CC(C#N)=NNc1cc(F)c(Br)cc1F | – | 4.79 µM | IC50 (PBLUC_HILL_SLOPE 13.7, PBLUC_R_SQUARED 0.287, read-out: LUCIFERASE INFECTION ASSAY - IC50): 4.08 µM
Cc1[nH]c(C(=O)N2CCN(CC3CCCCC3)CC2)c(C)c1C(=O)OC(C)C | > 10 µM | > 10 µM | –
CCc1c(C)sc2nc(SCC(=O)c3cc(C)n(-c4ccc5c(c4)OCO5)c3C)n(CC)c(=O)c12 | – | > 10 µM | IC50 (HEPG2TOX_HILL_SLOPE 1.63, HEPG2TOX_R_SQUARED 0.963, PBLUC_HILL_SLOPE 1.91, PBLUC_R_SQUARED 0.412, read-out: LUCIFERASE INFECTION ASSAY - IC50): 3.47 µM
CC(C)Oc1cccc(-c2cn3c(-c4ccc(N(C)C)cc4)cnc3cn2)c1 | – | > 8.86 µM | IC50 (PBLUC_HILL_SLOPE 15, PBLUC_R_SQUARED 0.312, read-out: LUCIFERASE INFECTION ASSAY - IC50): > 8.86 µM
CC(C)(C)c1ccc(OCc2ccc(C(=O)N3CCN(CC(=O)NC4CC4)CC3)cc2)cc1 | – | > 10 µM | IC50 (HEPG2TOX_HILL_SLOPE 1.95, HEPG2TOX_R_SQUARED 0.886, PBLUC_HILL_SLOPE 11.8, PBLUC_R_SQUARED 0.642, read-out: LUCIFERASE INFECTION ASSAY - IC50): 8.43 µM
Cc1ccc(OCc2csc(-c3cnn(C)c3)n2)c2c1C(C)CC2=O (stereo not drawn) | – | > 10 µM | IC50 (PBLUC_HILL_SLOPE 1.52, PBLUC_R_SQUARED 0.607, read-out: LUCIFERASE INFECTION ASSAY - IC50): 3.47 µM
O=C(c1nn(-c2ccccc2)c2c1CCC2)N1CCn2c1nc1ccccc12 | > 10 µM | > 10 µM | –
CC(C)c1ccc(-c2cnc3sc(NCc4cccnc4)nn23)cc1 | > 9.44 µM | > 9.44 µM | –
CCN1CCC(N(C)c2ncnc3sc(-c4ccccc4)cc23)CC1 | > 10 µM | > 10 µM | –
O=C(CN1c2cccc3cccc(c23)S1(=O)=O)N1CCN(C(=O)c2ccco2)CC1 | > 10 µM | > 10 µM | –

Reference: ChEMBL document CHEMBL4483862, “Open-source discovery of chemical leads for next-generation chemoprotective antimalarials” (2018)
